# In ChEMBL document CHEMBL5442168, “ASAP - In vitro liver microsomal stability” (2024):
# Several values for one entry are separate records, joined by “and”; a condition that tells them apart may be missing. Equal entries are not always repeated.
# Legend:
# [1] = (§1) Mouse liver microsomal stability of compound in microsomal protein, PBS buffer pH 7.4, NADPH, glucose-6-phosphate and glucose-6-phosphate dehydrogenase media. Aliquotes were taken at 5 time points and after stopping the reaction, supernatants were analyzed using HPLC coupled with a tandem mass spectrometer. The elimination constant, half-life, and intrinsic clearance are determined as results using linear regression analysis. The assay has been performed by Enamine biological services, Bienta Ltd.The protocol is publicly available: dx.doi.org/10.17504/protocols.io.5qpvokdb9l4o/v1; assay type: ADME, microsomes, Microsome; settings: for half-life / microsomal CLint: liver microsomes; for Remaining / Remaining (without cofactor) / CLint / T1/2: microsomes
# [2] = as §1, with “Human” for “Mouse”; assay type: ADME, microsomes, Microsome; settings: for half-life / microsomal CLint: liver microsomes; for Remaining / Remaining (without cofactor) / CLint / T1/2: microsomes
# For Remaining (without cofactor) in this document: time not given here.
# For Remaining in this document: time not given here.
Compound,half-life [1] [min],microsomal CLint [1] [µL/min/mg],Remaining [1],Remaining (without cofactor) [1],half-life [2] [min],microsomal CLint [2] [µL/min/mg],Remaining [2],Remaining (without cofactor) [2],CLint [1],T1/2 [1],CLint [2],T1/2 [2]
CC(C)[C@@H](Nc1ncnc2[nH]c(-c3cnn(C)c3C#N)cc12)c1ccc2c(n1)OCCO2,,,6% and 10% and 1%,110% and 101% and 99%,,,,104% and 98% and 93%,169 µL/min/mg and 139 µL/min/mg and 371 µL/min/mg,9.9 min and 12 min and 4.5 min,,
CCNC(=O)c1cc2c(N[C@H](c3ccc4c(c3)S(=O)(=O)CCC4)C(C)C)ncnc2[nH]1,26.3,64,34%,97%,15.4,109,17%,102%,,,,
CNC(=O)Cn1cc(-c2cc3c(N[C@H](c4ccc5c(c4)S(=O)(=O)CCC5)C(C)C)ncnc3[nH]2)cn1,15,111,16%,96%,18.1,92,23%,101%,,,,
CCNC(=O)c1cc2c(N[C@@H](c3ccc4c(c3)OCCO4)C(C)C)ncnc2[nH]1,19,88,24% and 29%,109% and 92%,,,,103% and 97%,72 µL/min/mg,23.2 min,,
CNCc1cc(-c2cc3c(N[C@H](c4ccc5c(c4)S(=O)(=O)CCC5)C(C)C)ncnc3[nH]2)co1,41.8,40,51%,96%,25.1,67,33%,98%,,,,
CNC(=O)c1cccc(-c2cc3c(N[C@@H](c4ccc5c(c4)S(=O)(=O)CCC5)C(C)C)ncnc3[nH]2)c1,1.9,882,1%,101%,3.7,455,0%,93%,,,,
O=C(Nc1ccccc1)Nc1ccc(C(=O)NC2c3cccc(O)c3CC2C(=O)O)cc1 (stereo not drawn),1070,2,111%,99%,187,9,123%,96%,,,,
CC(C)[C@H](Nc1ncnc2[nH]c(-c3cnn(C)c3C#N)cc12)c1ccc2c(c1)NC(=O)CO2,20.7,81,27%,96%,14.6,115,16%,101%,,,,
CNC(=O)c1cc2c(N[C@@H](c3ccc4c(c3)NC(=O)CO4)C(C)C)ncnc2[nH]1,84.4,20,71% and 57%,103% and 99%,,,,94% and 96%,33 µL/min/mg,51.2 min,,
CC(C)[C@@H](Nc1ncnc2[nH]c(-c3cnn(CC(N)=O)c3)cc12)c1ccc2c(c1)OCCO2,41.1,41,54% and 49%,87% and 98%,,,,103% and 90%,42 µL/min/mg,40 min,99 µL/min/mg and 238 µL/min/mg,16.9 min and 7 min
CC(C)(C)[C@H](Nc1ncnc2[nH]c(-c3cnn(CC(N)=O)c3)cc12)c1ccc2c(n1)OCCO2,162,10,88%,116%,60.8,27,64%,95%,,,,

# More lines, now with the values ahead:
half-life [1] [min],microsomal CLint [1] [µL/min/mg],Remaining [1],Remaining (without cofactor) [1],half-life [2] [min],microsomal CLint [2] [µL/min/mg],Remaining [2],Remaining (without cofactor) [2],CLint [1],T1/2 [1],CLint [2],T1/2 [2],Compound
48.1,35,54%,102%,3.3,500,0%,115%,,,,,CC(C)[C@H](Nc1ncnc2[nH]c(-c3cnn(CC(=O)N(C)C)c3)cc12)c1ccc2c(c1)OCCO2
,,2% and 0%,101% and 102%,,,,90% and 111%,,,,,CC(C)[C@@H](Nc1ncnc2[nH]cc(C(=O)NC3CC3)c12)c1ccc2c(c1)S(=O)(=O)CCC2
20.7,81,27%,96%,100,17,78%,116%,,,,,CC(C)[C@H](Nc1ncnc2[nH]c(-c3cnn(C)c3C#N)cc12)c1ccc2c(n1)OCCO2
1.9,888,0%,99%,3.1,540,0%,106%,,,,,COCCNC(=O)c1c[nH]c2ncnc(N[C@@H](c3ccc4c(c3)S(=O)(=O)CCC4)C(C)C)c12
19.1,87,23%,92%,13.9,120,13%,98%,,,,,CC(C)[C@@H](Nc1ncnc2[nH]c(-c3cnn(C)c3)cc12)c1ccc2c(c1)S(=O)(=O)NCC2
454,4,95%,105%,280,6,88%,86%,,,,,O=C(Nc1cccc2c(C(=O)N[C@@H]3c4ccccc4C[C@@H]3C(=O)O)c[nH]c12)NC1CC1
6.5,255,1%,98%,9.9,169,7%,95%,,,,,CC(C)[C@H](Nc1ncnc2[nH]c(-c3cnn(C)c3)cc12)c1ccc2c(c1)S(=O)(=O)CCC2
156,11,84%,102%,99.2,17,73%,91%,,,,,CC(C)[C@@H](Nc1ncnc2[nH]c(-c3cnn(CC(N)=O)c3)cc12)c1ccc2c(c1)NC(=O)CO2
11.5,145,9% and 5%,92%,23.7,70,30% and 43%,97% and 98%,189 µL/min/mg,8.8 min,51 µL/min/mg,32.6 min,CC(C)[C@@H](Nc1ncnc2[nH]c(-c3cnn(C)c3C#N)cc12)c1ccc2c(n1)NC(=O)CO2
14.8,113,16%,95%,19.5,86,23%,98%,,,,,CNC(=O)c1c[nH]c2ncnc(N[C@@H](c3ccc4c(c3)NC(=O)CO4)C(C)C)c12
145,12,83% and 90%,104% and 102%,120,14,77%,95%,9 µL/min/mg,182.3 min,18 µL/min/mg,91.8 min,CC(C)[C@@H](Nc1ncnc2[nH]c(-c3cnn(CC(N)=O)c3)cc12)c1ccc2c(n1)OCCO2
13.5,124,13%,98%,18.1,92,22%,97%,,,,,CC(C)[C@H](Nc1ncnc2[nH]c(-c3cnn(CC(=O)N(C)C)c3)cc12)c1ccc2c(c1)S(=O)(=O)CCC2
,,31% and 59%,92% and 102%,,,,92% and 99%,68 µL/min/mg and 31 µL/min/mg,24.6 min and 53.8 min,106 µL/min/mg and 297 µL/min/mg,15.8 min and 5.6 min,CC(C)[C@@H](Nc1ncnc2[nH]c(-c3cnn(CC(=O)N(C)C)c3)cc12)c1ccc2c(c1)S(=O)(=O)CCC2
1540,1,98%,97%,150,11,80%,98%,,,,,CC(C)[C@H](Nc1ncnc2[nH]c(C(=O)N[C@H]3CCN(C)C3)cc12)c1ccc2c(c1)S(=O)(=O)CCC2
28.1,59,39% and 48%,98% and 114%,11.8,142,9% and 18%,110% and 114%,45 µL/min/mg,36.8 min,108 µL/min/mg,15.4 min,CC(C)[C@@H](Nc1ncnc2[nH]c(-c3cnn(CC(=O)N(C)C)c3)cc12)c1ccc2c(c1)OCCO2
36.8,45,49%,101%,19.7,85,24%,107%,,,,,CCNC(=O)c1cc2c(N[C@@H](c3ccc4c(c3)S(=O)(=O)NCC4)C(C)C)ncnc2[nH]1
